Results from patent publication US5821222A, “Cyclic depsipeptides having 18 ring atoms for combating endoparasites” (Bayer Aktiengesellschaft, priority 1992, dated 1998).

Experiments:
[1] = system: Trichinella spiralis; assay: Trichinella spiralis in vitro; type: cell-based; details: Trichina larvae from mouse muscle, incubation 5 days at 19° C.; tested at 100, 10 and 1 μm/ml
Experimental: Trichinella spiralis in vitro
(§1) Trichina lavae are isolated from mice's muscle and washed in 0.9% NaCl supplemented with 20 μg/ml sisomycin and 2 μg/ml clotrimazole. The actual incubation of approximately 20 trichinae per measurement is carried out in 2 ml of a solution composed of 10 g of Bacto Casitone, 5 g of yeast (yeast extract), 2.5 g of glucose, 0.4 g of KH2 PO4 and 0.4 g of K2 HPO4 per 500 ml, pH 7.2, containing 10 μm/ml of sisomycin and 1 μm/ml of clotrimazole. 10 mg of the substance to be tested are dissolved in 0.5 ml of DMSO, and such an amount is added to the incubation medium that the end concentration is 100, 10 and 1 μm/ml. The experiment is evaluated after incubation for 5 days at 19° C.

[2] = system: Heterakis spumose; assay: Heterakis spumose in vitro test (mobility and egg excretion); type: cell-based; details: 10 female nematodes, incubation 3 days at 37° C.
Experimental: as §1
Female Heterakis spumose nematodes are isolated from the colon and caecum of mice. 10 females are incubated for 3 days at 37° C. in 1.5 ml of medium used for the Trichinella spiarlis in-vitro test. The addition of test substances is likewise carried out as described for the trichina test. To test the anthelmintic activity, mobility and egg excretion are assessed in comparison with the control. Enniatins A1, B and B1 are active at a concentration of 10 μM/ml.

[3] = system: Haemonchus contortus; assay: In vivo nematode test Haemonchus contortus/sheep; details: experimentally infected sheep, oral and/or intravenous; egg excretion stopped completely after treatment
Experimental: Haemonchus contortus/sheep
Shaft which have been infected experimentally with Haemonchus contortus were treated after the prepatent time of the parasite had elapsed. The active compounds were applied orally and/or intravenously in the form of the pure active compound.
The degree of effectiveness is determined by quantitatively counting the worm eggs excreted with the faeces before and after the treatment.
If the egg excretion has stopped completely after the treatment, this means that the worms were aborted or are damaged to such an extent that they no longer produce eggs (dosis effectiva).
Active compounds tested and effective dosage rates (dosis effectiva) can be seen from the table which follows: […]

| SMILES | effective concentration [1] | active concentration (mobility and egg excretion compared with control) [2] | Dosis effectiva [3] |
| --- | --- | --- | --- |
| CC[C@H](C)[C@H]1C(=O)O[C@H](C(C)C)C(=O)N(C)[C@@H]([C@@H](C)CC)C(=O)O[C@H](C(C)C)C(=O)N(C)[C@@H](C(C)C)C(=O)O[C@H](C(C)C)C(=O)N1C [Enniatin A1, enniatin A1] | 100 μm/ml | 10 μM/ml | – |
| CC[C@H](C)[C@H]1C(=O)O[C@H](C(C)C)C(=O)N(C)[C@@H](C(C)C)C(=O)O[C@H](C(C)C)C(=O)N(C)[C@@H](C(C)C)C(=O)O[C@H](C(C)C)C(=O)N1C [Enniatin B1, enniatin B1] | 100 μm/ml | 10 μM/ml | – |
| CC(C)[C@H]1C(=O)O[C@H](C(C)C)C(=O)N(C)[C@@H](C(C)C)C(=O)O[C@H](C(C)C)C(=O)N(C)[C@@H](C(C)C)C(=O)O[C@H](C(C)C)C(=O)N1C [Enniatin B, enniatin B] | 100 μm/ml | 10 μM/ml | – |
| CC[C@H](C)[C@H]1C(=O)O[C@H](C)C(=O)N(C)[C@@H]([C@@H](C)CC)C(=O)O[C@H](C)C(=O)N(C)[C@@H]([C@@H](C)CC)C(=O)O[C@H](C)C(=O)N1C [Example 1, Cyclo(N-methyl-L-isoleucyl-D-lactyl-N-methyl-L-isoleucyl-D-lactyl-N-methyl- L-isoleucyl-D-lactyl-)] | – | – | 5 mg/kg |
